In patent US6525001B1, “Substituted pyrimidine and pyridine herbicides” (Mid-American Commercialization Corporation, priority 1997, dated 2003):

Experiments:
Assay type in all cases: in vivo
[1] = test system: common ragweed (Ambrosia elatior); test: Test C; parameters: key: 0 was no effect; 100 was complete control; details: PREEMERGENCE
[2] = test system: fall panicum (Panicum dichotomiflorum); test: Test C; parameters: key: 0 was no effect; 100 was complete control; details: PREEMERGENCE
[3] = test system: redroot pigweed (Amaranthus retroflexus); test: Test C; parameters: key: 0 was no effect; 100 was complete control; details: PREEMERGENCE
[4] = test system: johnsongrass (Sorghum halepense); test: Test C; parameters: key: 0 was no effect; 100 was complete control; details: PREEMERGENCE
[5] = test system: barnyardgrass (Echinochloa crus-galli); test: Test C; parameters: key: 0 was no effect; 100 was complete control; details: PREEMERGENCE
[6] = test system: velvetleaf (Abutilon theophrasti); test: Test C; parameters: key: 0 was no effect; 100 was complete control; details: PREEMERGENCE
[7] = test system: common ragweed (Ambrosia elatior); test: Test E pre-/postemergence/post directed; parameters: key: 0 is no effect; 100 is complete control; details: PREEMERGENCE, Rate 250 g/ha
Text: (§1) Seeds, tubers, or plant parts of alexandergrass (Brachiaria plantaginea), annual bluegrass (Poa annua), arrowleaf sida (Sida rhombifolia), barnyardgrass (Echinochloa crus-galli), bermudagrass (Cynodon dactylon), citrus (Citrus sinensis), common chickweed (Stellaria media), common purslane (Portulaca oleracea), common ragweed (Ambrosia elatior), common groundsel (Senecio vulgaris), dallisgrass (Paspalum dilatatum), goosegrass (Eleusine indica), green foxtail (Setaria viridis), guineagrass (Panicum maximum), itchgrass (Rottboellia exaltata), johnson grass (Sorghum halepense), kochia (Kochia scoparia), large crabgrass (Digitaria sanguinalis), leafy spurge (Euphorbia esula), pitted morningglory (Ipomoea lacunosa), purple nutsedge (Cyperus rotundus), quackgrass (Agropyron repens), Russian thistle (Salsola kali), sandbur (Cenchrus echinatus), sourgrass (Trichachne insularis), Spanishneedles (Bidens bipinnata), sugarcane (Saccharum officinarum), surinam grass (Brachiaria decumbens) and tall mallow (Malva sylvestris) were planted into greenhouse pots of flats containing greenhouse planting medium. Plant species were grown grown in separate pots or individual compartments. Preemergence applications were made within one day of planting the seed or plant part. Postemergence applications were applied when the plants were in the two to four leaf stage (three to twenty cm).
(§2) Test chemicals were formulated in a non-phytotoxic solvent mixture which included a surfactant and applied preemergence to the soil surface, postemergence to the plants or as a post directed spray to plants and soil at the base of the target species. Untreated control plants and treated plants were placed in the greenhouse and visually evaluated for injury 13 to 21 days after herbicide application. Plant response ratings, summarized in Table E, are based on a 0 to 100 scale where 0 is no injury and 100 is complete control. A dash (−) response means no test result.

[8] = test system: sourgrass (Trichachne insularis); test: Test E pre-/postemergence/post directed; parameters: key: 0 is no effect; 100 is complete control
Text: as §1, §2

[9] = test system: goosegrass (Eleusine indica); test: Test E pre-/postemergence/post directed; parameters: key: 0 is no effect; 100 is complete control
Text: as §1, §2

[10] = test system: dallisgrass (Paspalum dilatatum); test: Test E pre-/postemergence/post directed; parameters: key: 0 is no effect; 100 is complete control
Text: as §1, §2

[11] = test system: tall mallow (Malva sylvestris); test: Test E pre-/postemergence/post directed; parameters: key: 0 is no effect; 100 is complete control; details: PREEMERGENCE
Text: as §1, §2

[12] = test system: common purslane (Portulaca oleracea); test: Test E pre-/postemergence/post directed; parameters: key: 0 is no effect; 100 is complete control
Text: as §1, §2

[13] = test system: guineagrass (Panicum maximum); test: Test E pre-/postemergence/post directed; parameters: key: 0 is no effect; 100 is complete control
Text: as §1, §2

[14] = test system: common groundsel (Senecio vulgaris); test: Test E pre-/postemergence/post directed; parameters: key: 0 is no effect; 100 is complete control; details: PREEMERGENCE
Text: as §1, §2

[15] = test system: bermudagrass (Cynodon dactylon); test: Test E pre-/postemergence/post directed; parameters: key: 0 is no effect; 100 is complete control; details: PREEMERGENCE, Rate 250 g/ha
Text: as §1, §2

[16] = test system: winter barley (Hordeum vulgare); test: Test D; details: PREEMERGENCE
[17] = test system: ladysthumb smartweed (Polygonum persicaria); test: Test C; parameters: key: 0 was no effect; 100 was complete control; details: PREEMERGENCE

Compound: Cc1cnc(-n2cnc(C(F)(F)F)n2)nc1Cc1cccc(C(F)(F)F)c1 [Compound 43]
- Plant response rating, Common ragweed ([1]; Rate 35 g/ha): 0
- Plant response rating, Common ragweed ([1]; Rate 70 g/ha): 40
- Plant response rating, Common ragweed ([1]; Rate 140 g/ha): 50
- Plant response rating, Fall panicum ([2]; Rate 35 g/ha): 100
- Plant response rating, Fall panicum ([2]; Rate 70 g/ha): 100
- Plant response rating, Fall panicum ([2]; Rate 140 g/ha): 100
- Plant response rating, Redroot pigweed ([3]; Rate 35 g/ha): 100
- Plant response rating, Redroot pigweed ([3]; Rate 70 g/ha): 100
- Plant response rating, Redroot pigweed ([3]; Rate 140 g/ha): 100
- Plant response rating, Johnsongrass ([4]; Rate 35 g/ha): 10
- Plant response rating, Johnsongrass ([4]; Rate 70 g/ha): 30
- Plant response rating, Johnsongrass ([4]; Rate 140 g/ha): 30
- Plant response rating, Barnyardgrass ([5]; Rate 35 g/ha): 10
- Plant response rating, Barnyardgrass ([5]; Rate 70 g/ha): 30
- Plant response rating, Barnyardgrass ([5]; Rate 140 g/ha): 50
- Plant response rating, Velvetleaf ([6]; Rate 35 g/ha): 100
- Plant response rating, Velvetleaf ([6]; Rate 70 g/ha): 100
- Plant response rating, Velvetleaf ([6]; Rate 140 g/ha): 100

Compound: Cc1cnc(-n2cnc(C(F)(F)F)c2)nc1Cc1cccc(C(F)(F)F)c1 [Compound 44]
- Plant response rating, Com. ragweed [7]: 100
- Plant response rating, Sourgrass ([8]; POSTEMERGENCE, Rate 125 g/ha): 10
- Plant response rating, Sourgrass ([8]; POSTEMERGENCE, Rate 250 g/ha): 20
- Plant response rating, Sourgrass ([8]; PREEMERGENCE, Rate 32 g/ha): 80
- Plant response rating, Sourgrass ([8]; PREEMERGENCE, Rate 64 g/ha): 100
- Plant response rating, Sourgrass ([8]; PREEMERGENCE, Rate 125 g/ha): 100
- Plant response rating, Sourgrass ([8]; PREEMERGENCE, Rate 250 g/ha): 100
- Plant response rating, Goosegrass ([9]; POSTEMERGENCE, Rate 125 g/ha): 10
- Plant response rating, Goosegrass ([9]; POSTEMERGENCE, Rate 250 g/ha): 20
- Plant response rating, Goosegrass ([9]; PREEMERGENCE, Rate 32 g/ha): 98
- Plant response rating, Goosegrass ([9]; PREEMERGENCE, Rate 64 g/ha): 98
- Plant response rating, Goosegrass ([9]; PREEMERGENCE, Rate 125 g/ha): 98
- Plant response rating, Goosegrass ([9]; PREEMERGENCE, Rate 250 g/ha): 100
- Plant response rating, Dallisgrass ([10]; POSTEMERGENCE, Rate 125 g/ha): 10
- Plant response rating, Dallisgrass ([10]; POSTEMERGENCE, Rate 250 g/ha): 10
- Plant response rating, Dallisgrass ([10]; PREEMERGENCE, Rate 32 g/ha): 65
- Plant response rating, Dallisgrass ([10]; PREEMERGENCE, Rate 64 g/ha): 80
- Plant response rating, Dallisgrass ([10]; PREEMERGENCE, Rate 125 g/ha): 90
- Plant response rating, Dallisgrass ([10]; PREEMERGENCE, Rate 250 g/ha): 100
- Plant response rating, Tall Mallow ([11]; Rate 32 g/ha): 80
- Plant response rating, Tall Mallow ([11]; Rate 64 g/ha): 80
- Plant response rating, Tall Mallow ([11]; Rate 125 g/ha): 98
- Plant response rating, Tall Mallow ([11]; Rate 250 g/ha): 98
- Plant response rating, Com. purslane ([12]; POSTEMERGENCE, Rate 125 g/ha): 70
- Plant response rating, Com. purslane ([12]; POSTEMERGENCE, Rate 250 g/ha): 70
- Plant response rating, Com. purslane ([12]; PREEMERGENCE, Rate 32 g/ha): 80
- Plant response rating, Com. purslane ([12]; PREEMERGENCE, Rate 64 g/ha): 100
- Plant response rating, Com. purslane ([12]; PREEMERGENCE, Rate 125 g/ha): 100
- Plant response rating, Com. purslane ([12]; PREEMERGENCE, Rate 250 g/ha): 100
- Plant response rating, Guineagrass ([13]; POSTEMERGENCE, Rate 125 g/ha): 85
- Plant response rating, Guineagrass ([13]; POSTEMERGENCE, Rate 250 g/ha): 85
- Plant response rating, Guineagrass ([13]; PREEMERGENCE, Rate 32 g/ha): 20
- Plant response rating, Guineagrass ([13]; PREEMERGENCE, Rate 64 g/ha): 80
- Plant response rating, Guineagrass ([13]; PREEMERGENCE, Rate 125 g/ha): 100
- Plant response rating, Guineagrass ([13]; PREEMERGENCE, Rate 250 g/ha): 100
- Plant response rating, Com. groundsel ([14]; Rate 64 g/ha): 100
- Plant response rating, Com. groundsel ([14]; Rate 125 g/ha): 100
- Plant response rating, Com. groundsel ([14]; Rate 250 g/ha): 100
- Plant response rating, Bermudagrass [15]: 100

Compound: Cc1cnc(-n2cnc(C(F)(F)F)n2)nc1Cn1ccc(C(F)(F)F)n1 [Compound 51]
- Plant response rating, Barley (winter) ([16]; Rate 31 g/ha): 50
- Plant response rating, Barley (winter) ([16]; Rate 62 g/ha): 90

Compound: Cc1cnc(-n2ccc(C(F)(F)F)n2)nc1C(=O)c1cccc(OC(F)(F)F)c1 [Compound 66]
- Plant response rating, Ladysthumb ([17]; Rate 35 g/ha): 0
- Plant response rating, Ladysthumb ([17]; Rate 140 g/ha): 70
- Plant response rating, Common ragweed ([1]; Rate 35 g/ha): 0
- Plant response rating, Common ragweed ([1]; Rate 70 g/ha): 0
- Plant response rating, Common ragweed ([1]; Rate 140 g/ha): 30
- Plant response rating, Fall panicum ([2]; Rate 35 g/ha): 80
- Plant response rating, Fall panicum ([2]; Rate 70 g/ha): 80
- Plant response rating, Fall panicum ([2]; Rate 140 g/ha): 100
- Plant response rating, Redroot pigweed ([3]; Rate 35 g/ha): 100
- Plant response rating, Redroot pigweed ([3]; Rate 70 g/ha): 100
- Plant response rating, Redroot pigweed ([3]; Rate 140 g/ha): 100
- Plant response rating, Johnsongrass ([4]; Rate 35 g/ha): 0
- Plant response rating, Johnsongrass ([4]; Rate 70 g/ha): 5
- Plant response rating, Johnsongrass ([4]; Rate 140 g/ha): 10
- Plant response rating, Barnyardgrass ([5]; Rate 35 g/ha): 0
- Plant response rating, Barnyardgrass ([5]; Rate 70 g/ha): 5
- Plant response rating, Barnyardgrass ([5]; Rate 140 g/ha): 5
- Plant response rating, Velvetleaf ([6]; Rate 35 g/ha): 0
- Plant response rating, Velvetleaf ([6]; Rate 70 g/ha): 0
- Plant response rating, Velvetleaf ([6]; Rate 140 g/ha): 0
